Source: patent US20020132817A1, “Heterocyclic compounds, their production and use” (priority 1998, published 2002)
pIC50: −log10 of the molar value.

Tests used:
substance P receptor = target: T1, substance P receptor (Homo sapiens, UniProt P25103); assay: Radioligand receptor binding inhibitory activity using receptor from human lymphoblast cells (IM-9); settings: 125I-BHSP radioligand, receptor from IM-9 cells, 25° C. for 30 minutes
T1 construct: The receptor was prepared from human lymphoblast cells (IM-9); endogenous in cells; host or cells: IM-9 human lymphoblast cells (membrane preparation)
T1 sequence (P25103 whole entry): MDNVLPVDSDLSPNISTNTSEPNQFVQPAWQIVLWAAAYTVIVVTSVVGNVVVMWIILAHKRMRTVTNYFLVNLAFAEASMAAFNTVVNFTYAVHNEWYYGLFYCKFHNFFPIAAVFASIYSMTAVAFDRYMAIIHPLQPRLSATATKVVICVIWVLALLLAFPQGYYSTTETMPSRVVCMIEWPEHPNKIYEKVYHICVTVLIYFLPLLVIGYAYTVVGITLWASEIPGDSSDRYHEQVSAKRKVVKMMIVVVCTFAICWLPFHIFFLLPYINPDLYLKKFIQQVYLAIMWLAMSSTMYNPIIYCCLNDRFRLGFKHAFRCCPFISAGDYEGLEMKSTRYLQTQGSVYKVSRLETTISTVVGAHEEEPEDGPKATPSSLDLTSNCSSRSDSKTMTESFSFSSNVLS
Method: Radioligand receptor binding inhibitory activity Binding inhibitory activity using receptor from human lymphoblast cells (IM-9)
The receptor was prepared from human lymphoblast cells (IM-9). IM-9 cells (2×10^5 cells/ml) were inoculated and incubated for 3 days (one liter), which was then subjected to centrifuge for 5 minutes at 500×g to obtain cell pellets. […] The residue was washed twice with 30 ml of the above-mentioned buffer, which was then preserved frozen (−80° C.) as a specimen of the receptor.
The specimen was suspended in a reaction buffer (50 mM Tri-HCl buffer (pH 7.4), 0.02% bovine serum albumin, 1 mM phenylmethylsulfonyl fluoride, […], […] bacitracin, 3 mM manganese chloride) and 100 ul portion was the suspension was used in the reaction. […] The amount of nonspecific binding was determined by adding substance P at a final concentration of 2×10^−6M. After the reaction, using a cell harvester (290 PHD, Cambridge Technology, Inc, U.S.A.), rapid filtration was carried out through a glass filter (GF/B, Whatman, U.S.A.) to stop the reaction. After washing three times with 250 ul of 50 mM of Tris-HCl buffer (pH 7.4) containing 0.02% bovine serum albumin, the radioactivity remaining on the filter was determined with a gamma counter. Before use, the filter was immersed in 0.1% polyethyleneimine for 24 hours and air-dried.

[1] = system: plasma extravasation induced by capsaicin in trachea of guinea pigs; assay: Inhibitory effect on plasma extravasation induced by capsaicin in trachea of guinea pigs; assay type: in vivo; settings: Cavia porcellus, iv, 5 minutes before capsaicin, Evans' blue dye in trachea, read-out: ID50, μg/kg, i.v.
Method: Guinea pigs (Hartley type white male guinea pige), (n=6) were anesthetized with 35 mg/kg of pentobarbital injected intraperitoneally (i.p.), then test compounds were administered intravenously (i.v.). After 5 minutes, a mixed solution of capsaicin ([…]) and Evans' blue dye (20 mg/kg) was administered intravenously to cause reaction. Ten minutes later, test animals were sacrificed by cutting the aorta, then perfused through pulmonary artery with 50 ml of physiological saline. The trachea was excised, and its wet weight was measure. The trachea was incubated at room temperature in 1 ml of acetone-0.3% sodium sulfate (7:3) overnight and Evans' blue dye was extracted from the trachea. The extract solution was centrifuged at 2800 rpm for 5 minutes. The amount of Evans' blue dye in the supernatant was quantified by measuring absorbance at […].
The reaction of accelerating the permeability of blood vessels is expressed in terms of the amount of Evans' blue (μg) per trachea unit weight (g) and the effect of drug was evaluated by calculating the degree of inhibition (% inhibition) according to the following equation: […]

With `CCC1CCn2c(c(-c3ccc(C)cc3)c3cccnc3c2=O)C(=O)N(Cc2cc(C(F)(F)F)cc(C(F)(F)F)c2)C1` (racemic) [Example 15, (±)-7-[3,5-bis(trifluoromethyl)benzyl]-9-ethyl-6,7,8,9,10,11-hexahydro-5-(4-methylphenyl)-6,13-dioxo-13H-[1,4]diazosino[2,1-g][1,7]napththylidine] the pIC50 (substance P receptor) was 8.96 and the melting point was 258 to 260 °C.
With `CC1CCn2c(c(-c3ccccc3)c3cccnc3c2=O)C(=O)N(Cc2cc(C(F)(F)F)cc(C(F)(F)F)c2)C1` (racemic) [Reference Example 69, (+/−)-7-[3,5-Bis(trifluoromethyl)benzyl]-6,7,8,9,10,11-hexahydro-9-methyl-6,13-dioxo-5-phenyl-13H-[1,4]diazocino[2,1-g][1,7]naphthyridine] the pIC50 (substance P receptor) was 9.06 and the melting point was 257 to 258 °C.
In the case of `Cc1ccc(-c2c3n(c(=O)c4ncccc24)CC(O)CN(Cc2cc(C(F)(F)F)cc(C(F)(F)F)c2)C3=O)cc1` (racemic) [Reference Example 79, (+/−)-7-[3,5-Bis(trifluoromethyl)benzyl]-6,7,8,9,10,12-hexahydro-9-hydroxy-5-(4-methylphenyl)-6,12-dioxo[1,4]diazepino [2,1-g][1,7]naphthyridine], the pIC50 (substance P receptor) was 10.00 and the melting point was 282 to 283 °C.
With `COc1cc(CN2C[C@H](C)CCn3c(c(-c4ccccc4)c4cccnc4c3=O)C2=O)cc(OC)c1` [Example 5, (9R)-7-(3,5-dimethoxybenzyl)-6,7,8,9,10,11-hexahydro-9-methyl-6,13-dioxo-5-phenyl-13H-[1,4]diazosino[2,1-g][1,7]napththylidine] the pIC50 (substance P receptor) was 9.32 and the melting point was 199 to 201 °C.
Molecule `COc1cc(CN2C[C@H](C)CCn3c(c(-c4ccc(Cl)c(Cl)c4)c4cccnc4c3=O)C2=O)cc(OC)c1` [Example 8, (9R)-7-(3,5-dimethoxybenzyl)-5-(3,4-dichlorophenyl)-6,7,8,9,10,11-hexahydro-9-methyl-6,13-dioxo-13H-[1,4]diazosino[2,1-g][1,7]napththylidine] has a pIC50 (substance P receptor) of 10.30 and a melting point of 207 to 208 °C.
`Cc1ccc(-c2c3n(c(=O)c4ncccc24)CC[C@@H](C)CN(Cc2cc(C)cc(C)c2)C3=O)cc1` [Example 9, (9R)-7-(3,5-dimethylbenzyl)-6,7,8,9,10,11-hexahydro-9-methyl-5-(4-methylphenyl)-6,13-dioxo-13H-[1,4]diazosino[2,1-g][1,7]napththylidine] gave a pIC50 (substance P receptor) of 9.07 and a melting point of 200 to 202 °C.
In the case of `Cc1ccc(-c2c3n(c(=O)c4ncccc24)CC[C@@H](C)CN(Cc2cc(Cl)cc(Cl)c2)C3=O)cc1` [Example 10, (9R)-7-(3,5-dichlorobenzyl)-6,7,8,9,10,11-hexahydro-9-methyl-5-(4-methylphenyl)-6,13-dioxo-13H-[1,4]diazosino[2,1-g][1,7]napththylidine], the pIC50 (substance P receptor) was 9.00 and the melting point was 139 to 141 °C.
`Cc1cc(C)cc(CN2C[C@H](C)CCn3c(c(-c4ccc(Cl)c(Cl)c4)c4cccnc4c3=O)C2=O)c1` [Example 11, (9R)-5-(3,4-dichlorophenyl)-7-(3,5-dimethylbenzyl)-6,7,8,9,10,11-hexahydro-9-methyl-6,13-dioxo-13H-[1,4]diazosino[2,1-g][1,7]napththylidine] showed a pIC50 (substance P receptor) of 9.09 and a melting point of 137 to 139 °C.
Work on `COc1cc(CN2C[C@H](C)CCn3c(c(-c4ccc(F)cc4)c4cccnc4c3=O)C2=O)cc(OC)c1` [Example 12, (9R)-7-(3,5-dimethoxybenzyl)-5-(4-fluorophenyl)-6,7,8,9,10,11-hexahydro-9-methyl-6,13-dioxo-13H-[1,4]diazosino[2,1-g][1,7]napththylidine] yielded a pIC50 (substance P receptor) of 8.82 and a melting point of 192 to 193 °C.
With `COc1cc(CN2C[C@H](C)CCn3c(c(-c4ccc(Cl)cc4)c4cccnc4c3=O)C2=O)cc(OC)c1` [Example 13, (9R)-5-(4-chlorophenyl)-7-(3,5-dimethoxybenzyl)-6,7,8,9,10,11-hexahydro-9-methyl-6,13-dioxo-13H-[1,4]diazosino[2,1-g][1,7]napththylidine] the pIC50 (substance P receptor) was 8.96 and the melting point was 229 to 230 °C.
`Cc1ccc(-c2c3n(c(=O)c4ncccc24)CCCCCN(Cc2cc(C(F)(F)F)cc(C(F)(F)F)c2)C3=O)cc1` [Reference Example 60, 7-[3,5-Bis(trifluoromethyl)benzyl]-6,7,8,9,10,11,12,14-octahydro-5-(4-methylphenyl)-6,14-dioxo[1,4]diazonino[2,1-g][1,7]naphthyridine] showed an ED50 [1] of 11 µg/kg.
Work on `O=C1c2c(-c3ccccc3)c3cccnc3c(=O)n2CCCN1Cc1cc(C(F)(F)F)cc(C(F)(F)F)c1` [Reference Example 61, 7-[3,5-Bis(trifluoromethyl)benzyl]-6,7,8,9,10,12-hexahydro-6,12-dioxo-5-phenyl[1,4]diazepino[2,1-g][1,7]naphthyridine] yielded an ED50 [1] of 2.6 µg/kg.
For `Cc1ccc(-c2c3c(c(=O)n4c2C(=O)N(Cc2cc(C(F)(F)F)cc(C(F)(F)F)c2)CCCC4)CN(C)CC3)cc1` [Reference Example 64, 7-[3,5-Bis(trifluoromethyl)benzyl]-1,2,3,4,6,7,8,9,10,11-decahydro-2-methyl-5-(4-methylphenyl)-6,13-dioxo-13H-[1,4]diazocino[1,2-b][2,7]naphthyridine], the pIC50 (substance P receptor) was 9.18.
Work on `Cc1cnc2c(c1-c1ccccc1)C(=O)N(Cc1cc(C(F)(F)F)cc(C(F)(F)F)c1)CCCO2` [Reference Example 78] yielded a pIC50 (substance P receptor) of 8.80.
For `Cc1cnc2c(c1-c1ccccc1)C(=O)N(Cc1cc(C(F)(F)F)cc(C(F)(F)F)c1)C[C@H](C)CO2` [Reference Example 85, (S)-5-[3,5-Bis(trifluoromethyl)benzyl]-2,3,4,5-tetrahydro-3,8-dimethyl-6-oxo-7-phenyl-6H-pyrido[2,3-b][1,5]oxazocine], the pIC50 (substance P receptor) was 9.44 and the melting point was 147 to 148 °C.
Work on `Cc1cc(-c2ccccc2)c2c([n+]1[O-])OCCN(Cc1cc(C(F)(F)F)cc(C(F)(F)F)c1)C2=O` [Reference Example 89, 4-[3,5-Bis(trifluoromethyl)benzyl]-2,3,4,5-tetrahydro-8-methyl-5-oxo-6-phenylpyrido[3,2-f][1,4]oxazepine 9-oxide] yielded a pIC50 (substance P receptor) of 9.36 and a melting point of 181 to 183 °C.
`CC(=O)OCc1cc(-c2ccccc2)c2c(n1)OCCN(Cc1cc(C(F)(F)F)cc(C(F)(F)F)c1)C2=O` [Reference Example 91, 8-Acetoxymethyl-4-[3,5-bis(trifluoromethyl)benzyl]-2,3,4,5-tetrahydro-5-oxo-6-phenylpyrido[3,2-f][1,4]oxazepine] gave a pIC50 (substance P receptor) of 9.55 and a melting point of 122 to 124 °C.
Molecule `CC(=O)OCc1cc(-c2ccccc2)c2c(n1)OCCCN(Cc1cc(C(F)(F)F)cc(C(F)(F)F)c1)C2=O` [Reference Example 92, 9-Acetoxymethyl-5-[3,5-bis(trifluoromethyl)benzyl]-2,3,4,5-tetrahydro-6-oxo-7-phenyl-6H-pyrido[2,3-b][1,5]oxazocine] has a pIC50 (substance P receptor) of 9.13 and a melting point of 156 to 157 °C.
With `O=C1c2c(-c3ccccc3)cc(CCl)nc2OCCN1Cc1cc(C(F)(F)F)cc(C(F)(F)F)c1` [Reference Example 93, 4-[3,5-Bis(trifluoromethyl)benzyl]-8-chloromethyl-2,3,4,5-tetrahydro-5-oxo-6-phenylpyrido[3,2-f][1,4]oxazepine] the pIC50 (substance P receptor) was 9.38 and the melting point was 183 to 184 °C.
In the case of `COCc1cc(-c2ccccc2)c2c(n1)OCCN(Cc1cc(C(F)(F)F)cc(C(F)(F)F)c1)C2=O` [Reference Example 94, 4-[3,5-Bis(trifluoromethyl)benzyl]-2,3,4,5-tetrahydro-8-methoxymethyl-5-oxo-6-phenylpyrido[3,2-f][1,4]oxazepine], the pIC50 (substance P receptor) was 9.77 and the melting point was 139 to 140 °C.
In the case of `CN(C)Cc1cc(-c2ccccc2)c2c(n1)OCCN(Cc1cc(C(F)(F)F)cc(C(F)(F)F)c1)C2=O` [Reference Example 99, 4-[3,5-Bis(trifluoromethyl)benzyl]-8-dimethylaminomethyl-2,3,4,5-tetrahydro-5-oxo-6-phenylpyrido[3,2-f][1,4]oxazepine], the pIC50 (substance P receptor) was 9.92 and the melting point was 186 to 188 °C.
`CN1CCN(Cc2cc(-c3ccccc3)c3c(n2)OCCN(Cc2cc(C(F)(F)F)cc(C(F)(F)F)c2)C3=O)CC1` [Reference Example 101, 4-[3,5-Bis(trifluoromethyl)benzyl]-2,3,4,5-tetrahydro-8-(N-methylpiperazinomethyl)-5-oxo-6-phenylpyrido[3,2-f][1,4]oxazepine] showed a pIC50 (substance P receptor) of 9.70.
